Legend:
[1] = target: T1, COMT in MLS9 (Mus musculus, UniProt O88587); assay: Kinetic analysis of 3-BTD methylation in mouse liver S9; format: in vitro ADME, ICR/CD-1 mice; conditions: formation of 3-BTMD in MLS9; Vmax/Km
T1 sequence (O88587 44-265 limits assumed): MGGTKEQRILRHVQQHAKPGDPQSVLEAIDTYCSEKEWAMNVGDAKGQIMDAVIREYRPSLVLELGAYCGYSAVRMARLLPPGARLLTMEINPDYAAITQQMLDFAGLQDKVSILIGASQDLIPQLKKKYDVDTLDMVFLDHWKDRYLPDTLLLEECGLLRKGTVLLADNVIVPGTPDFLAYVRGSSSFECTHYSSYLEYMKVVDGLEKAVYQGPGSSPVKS

[2] = target: T2, COMT in GpLS9 (Cavia porcellus, UniProt A0A286XRD6); assay: Kinetic analysis of 3-BTD methylation in guinea pig liver S9; format: in vitro ADME, Dunkin-Hartley guinea pigs; conditions: formation of 3-BTMD in GpLS9; Vmax/Km
T2 sequence (A0A286XRD6 1-270): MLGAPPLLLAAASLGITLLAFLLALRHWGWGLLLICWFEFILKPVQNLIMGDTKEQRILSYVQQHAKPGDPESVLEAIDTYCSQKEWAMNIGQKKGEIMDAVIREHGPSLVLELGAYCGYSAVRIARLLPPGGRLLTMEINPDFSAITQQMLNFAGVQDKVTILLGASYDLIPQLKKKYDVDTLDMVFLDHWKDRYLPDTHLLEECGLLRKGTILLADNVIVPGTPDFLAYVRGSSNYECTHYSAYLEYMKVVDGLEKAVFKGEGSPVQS

[3] = target: T3, COMT in RLS9 (Rattus norvegicus, UniProt P22734); assay: Kinetic analysis of 3-BTD methylation in rat liver S9; format: in vitro ADME, Sprague-Dawley rats; conditions: formation of 3-BTMD in RLS9; Vmax/Km
T3 sequence (P22734 44-264 limits assumed): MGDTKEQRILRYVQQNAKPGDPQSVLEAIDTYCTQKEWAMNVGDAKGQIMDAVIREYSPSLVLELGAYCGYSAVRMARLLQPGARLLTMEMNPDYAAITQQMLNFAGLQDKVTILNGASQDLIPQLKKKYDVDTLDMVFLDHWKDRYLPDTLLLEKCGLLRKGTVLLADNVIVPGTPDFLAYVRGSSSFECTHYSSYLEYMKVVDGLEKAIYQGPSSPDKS

[4] = target: T4, COMT in RaLS9 (Oryctolagus cuniculus, UniProt A0A5F9DQ59); format: in vitro ADME, New Zealand rabbits; conditions: formation of 3-BTMD in RaLS9; Vmax/Km
T4 sequence (A0A5F9DQ59 1-268): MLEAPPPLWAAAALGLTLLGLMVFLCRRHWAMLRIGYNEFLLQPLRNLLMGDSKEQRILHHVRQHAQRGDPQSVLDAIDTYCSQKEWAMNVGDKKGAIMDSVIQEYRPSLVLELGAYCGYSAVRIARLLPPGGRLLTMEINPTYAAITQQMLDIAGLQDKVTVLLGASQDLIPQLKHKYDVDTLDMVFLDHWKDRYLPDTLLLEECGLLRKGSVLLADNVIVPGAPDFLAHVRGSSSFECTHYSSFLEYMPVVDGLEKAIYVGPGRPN

[5] = target: T5, COMT in DLS9 (Canis lupus familiaris, UniProt Q60F99); assay: Kinetic analysis of 3-BTD methylation in dog liver S9; format: in vitro ADME, beagle dogs; conditions: formation of 3-BTMD in DLS9; Vmax/Km
T5 sequence (Q60F99 1-221): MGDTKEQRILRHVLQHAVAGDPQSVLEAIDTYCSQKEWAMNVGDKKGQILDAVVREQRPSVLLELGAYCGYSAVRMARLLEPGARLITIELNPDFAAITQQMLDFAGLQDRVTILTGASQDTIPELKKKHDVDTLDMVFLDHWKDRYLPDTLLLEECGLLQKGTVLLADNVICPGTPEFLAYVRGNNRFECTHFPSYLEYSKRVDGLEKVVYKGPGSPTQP

[6] = target: T6, COMT in HLS9 (Homo sapiens, UniProt P21964); assay: Kinetic analysis of 3-BTD methylation in human liver S9; format: in vitro ADME, humans; conditions: formation of 3-BTMD in HLS9; Vmax/Km
T6 sequence (P21964 51-271 limits assumed): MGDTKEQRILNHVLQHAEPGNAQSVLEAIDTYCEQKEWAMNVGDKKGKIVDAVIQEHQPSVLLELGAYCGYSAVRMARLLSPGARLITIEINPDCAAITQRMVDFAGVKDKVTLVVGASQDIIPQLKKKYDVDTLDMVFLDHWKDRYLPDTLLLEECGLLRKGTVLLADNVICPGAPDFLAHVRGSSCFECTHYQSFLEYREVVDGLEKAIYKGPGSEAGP

[7] = target: T2, COMT in GpLS9; assay: Chemical inhibition assay of 3-BTD methylation in guinea pig liver S9; format: biochemical, Dunkin-Hartley guinea pigs
[8] = target: T7, COMT in CyLS9 (Macaca fascicularis, UniProt A0A7N9CL08); assay: Chemical inhibition assay of 3-BTD methylation in cynomolgus monkey liver S9
T7 sequence (A0A7N9CL08 1-274): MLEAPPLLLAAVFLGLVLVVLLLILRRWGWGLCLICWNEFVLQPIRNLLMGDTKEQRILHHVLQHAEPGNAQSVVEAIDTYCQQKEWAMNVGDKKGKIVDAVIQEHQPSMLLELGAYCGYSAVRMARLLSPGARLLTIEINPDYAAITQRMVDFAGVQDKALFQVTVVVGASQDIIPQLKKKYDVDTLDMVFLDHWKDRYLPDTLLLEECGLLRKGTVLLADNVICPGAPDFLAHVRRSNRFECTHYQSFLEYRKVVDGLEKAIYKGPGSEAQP

[9] = target: T5, COMT in DLS9; assay: Chemical inhibition assay of 3-BTD methylation in dog liver S9; format: biochemical, beagle dogs
[10] = target: T4, COMT in RaLS9; assay: biochemical
[11] = test system: mammalian COMT in liver S9; conditions: tolcapone 1000 nM, liver S9 from all the test species
[12] = target: T1, COMT in MLS9; assay: biochemical
[13] = test system: COMT in RaLS9

| Structure (SMILES) | Clint [1] [µL/min/mg] | Clint [2] [µL/min/mg] | Clint [3] [µL/min/mg] | Clint [4] [µL/min/mg] | Clint [5] [µL/min/mg] | Clint [6] [µL/min/mg] | IC50 [7] [µM] | IC50 ([8]; CyLS9 0.2 mg ml^−1, 3-BTD (1 μM) 8-O-methylation as probe reaction, mean ± S.E.) [µM] | inhibitory potency (IC50) in animal liver S9 versus HLS9 ([8]; CyLS9 versus HLS9) [fold] | IC50 [9] [µM] | IC50 [10] [µM] | inhibition of mammalian COMT-mediated 3-BTD methylation [11] | IC50 [12] [µM] | inhibitory potency (IC50) in animal liver S9 versus HLS9 [13] [fold] |
| --- | --- | --- | --- | --- | --- | --- | --- | --- | --- | --- | --- | --- | --- | --- |
| O=c1oc2c(O)c(O)ccc2cc1-c1nc2ccccc2s1 [3-BTD, 3-(benzo[d]thiazol-2-yl)-7,8-dihydroxy-2H-chromen-2-one] | 523 | 191 | 763 | 235 | 627 | 112 |  |  |  |  |  |  |  |  |
| Cc1ccc(C(=O)c2cc(O)c(O)c([N+](=O)[O-])c2)cc1 [tolcapone] |  |  |  |  |  |  | 0.108 ± 0.0071 | 0.0187 ± 0.003 | 1.1 | 0.0208 ± 0.0027 | 0.117 ± 0.0103 | strongly inhibit | 0.029 ± 0.0039 | 6.9 |
